Laboratory results published in patent US8859572B2, “Sulfone substituted 2,3-dihydroimidazo [1,2-C] quinazoline derivatives useful for treating hyper-proliferative disorders and diseases with angiogenesis” (Bayer Intellectual Property GmbH, priority 2008, dated 2014).

Target: T1, PI3Kβ (recombinant truncated form (ΔN1-108) of the human p110β subunit of PI3K) (Homo sapiens, UniProt P42338)
T1 construct: His6 (N); made in house; host or cells: Spodoptera frugiperda Sf9 insect cells
Assay: Solid-phase lipid kinase assay of PI3Kβ
Assay type: biochemical
Conditions: 7.5 ng protein/well, final 10 μM ATP, 2 h at rt
Protocol: To assess inhibition of PI3Kα by compounds, the Maxisorp™ plates were coated with 50 μL/well of a solution containing 50 μg/ml PtdIns and 50 μg/ml PtdSer dissolved in chloroform:ethanol (3:7). The plates were subsequently air-dried by incubation for at least 2 h in a fume hood. The reaction was set up by mixing 25 μL/well of assay buffer 2×(100 mM MOPSO/NaOH, 0.2 M NaCl, pH 7.0, 8 mM MgCl2, 2 mg/mL BSA (fatty acid-free)), and 7.5 ng/well PI3Kα in the lipid pre-coated plate. Test compounds at different concentrations (0.0, 0.003, 0.01 0.03, 0.1, 0.3, 1.0, 3.0 and 10 μM) were added in 2% DMSO. The reaction was initiated by adding 20 μL/well of ATP mix (final 10 μM ATP; 0.05 μCi/well [γ^33P]ATP). After incubation at rt for 2 h, the reaction was terminated by adding 50 μl/well stop solution (50 mM EDTA, pH 8.0). The plate was then washed twice with Tris-buffered saline (TBS, pH 7.4). MicroScint PS™ (PACKARD) scintillation mix was added at 100 μL/well, and radioactivity was counted using a TopCount™ (PACKARD) scintillation counter.
The inhibition percent at each concentration of compound was calculated, and IC50 values were determined from the inhibition of curve.
A recombinant truncated form (ΔN1-108) of the human p110β subunit of PI3K with an N-terminal His6-Tag was expressed in S. frugiperda 9 insect cells. Recombinant human PI3Kγ (full length human PI3K p110γ fused with a His6-tag at the C-terminus expressed in S. frugiperda 9 insect cells) was obtained from ALEXIS BIOCHEMICALS (#201-055-0010; San Diego, Calif.).
Kinase assays using recombinant truncated p110β or the full length p110γ were performed in a similar manner as described in the determination of IC50 values of compounds in the kinase assay of PI3Kα except that these isoforms were assayed using 7.5 ng and 25.0 ng of protein/well, respectively.

T1 sequence (P42338 109-1070): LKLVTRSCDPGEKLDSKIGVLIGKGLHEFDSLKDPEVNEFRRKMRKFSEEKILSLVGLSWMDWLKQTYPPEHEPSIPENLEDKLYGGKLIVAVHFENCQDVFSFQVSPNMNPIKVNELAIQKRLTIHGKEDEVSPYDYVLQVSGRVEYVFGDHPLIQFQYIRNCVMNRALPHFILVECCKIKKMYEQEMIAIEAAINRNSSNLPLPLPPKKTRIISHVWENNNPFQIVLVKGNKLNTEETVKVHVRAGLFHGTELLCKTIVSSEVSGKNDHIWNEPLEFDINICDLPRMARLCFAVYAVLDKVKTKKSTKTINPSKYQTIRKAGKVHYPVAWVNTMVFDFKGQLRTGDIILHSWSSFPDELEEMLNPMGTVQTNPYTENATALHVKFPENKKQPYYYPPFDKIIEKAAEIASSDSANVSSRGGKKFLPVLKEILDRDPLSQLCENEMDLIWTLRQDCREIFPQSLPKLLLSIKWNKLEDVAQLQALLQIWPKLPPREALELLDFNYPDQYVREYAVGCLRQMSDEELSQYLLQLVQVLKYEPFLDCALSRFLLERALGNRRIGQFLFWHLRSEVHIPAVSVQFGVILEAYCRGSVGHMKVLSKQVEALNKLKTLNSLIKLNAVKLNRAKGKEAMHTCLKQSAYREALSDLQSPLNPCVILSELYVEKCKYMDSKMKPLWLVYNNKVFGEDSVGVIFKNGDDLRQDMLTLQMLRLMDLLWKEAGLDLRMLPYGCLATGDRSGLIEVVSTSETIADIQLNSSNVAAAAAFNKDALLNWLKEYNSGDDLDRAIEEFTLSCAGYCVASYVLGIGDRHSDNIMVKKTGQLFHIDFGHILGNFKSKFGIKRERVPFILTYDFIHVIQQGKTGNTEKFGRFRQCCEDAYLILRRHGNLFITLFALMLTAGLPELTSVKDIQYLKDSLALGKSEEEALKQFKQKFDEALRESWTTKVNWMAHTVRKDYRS

Row | IC50 | SMILES
1 | < 0.1 µM | CN(C)S(=O)(=O)CCCOc1c(OCCCN2CCOCC2)ccc2c1N=C(NC(=O)c1cccnc1)N1CCN=C21 [Example 15, N-[7-{3-[(dimethylamino)sulfonyl]propoxy}-8-(3-morpholin-4-ylpropoxy)-2,3-dihydroimidazo[1,2-c]quinazolin-5-yl]nicotinamide]
2 | < 0.1 µM | COc1c(OCc2ccc(S(C)(=O)=O)cc2)ccc2c1N=C(NC(=O)c1cnc(N)nc1)N1CCN=C21 [Example 16, 2-amino-N-(7-methoxy-8-{[4-(methylsulfonyl)benzyl]oxy}-2,3-dihydroimidazo[1,2-c]quinazolin-5-yl)pyrimidine-5-carboxamide]
3 | < 0.1 µM | COc1c(OCCCS(=O)(=O)N(C)C)ccc2c1N=C(NC(=O)c1cnc(N)nc1)N1CCN=C21 [Example 17, 2-amino-N-(8-{3-[(dimethylamino)sulfonyl]propoxy}-7-methoxy-2,3-dihydroimidazo[1,2-c]quinazolin-5-yl)pyrimidine-5-carboxamide]
4 | < 0.1 µM | COc1c(OCCCS(=O)(=O)N(C)C)ccc2c1N=C(NC(=O)c1ccc(N)nc1)N1CCN=C21 [Example 18, 6-amino-N-(8-{3-[(dimethylamino)sulfonyl]propoxy}-7-methoxy-2,3-dihydroimidazo[1,2-c]quinazolin-5-yl)nicotinamide]
5 | < 0.1 µM | COc1c(OCCCN2CCS(=O)(=O)CC2)ccc2c1N=C(NC(=O)c1ccc(N)nc1)N1CCN=C21 [Example 19, 6-amino-N-{8-[3-(1,1-dioxidothiomorpholin-4-yl)propoxy]-7-methoxy-2,3-dihydroimidazo[1,2-c]quinazolin-5-yl}nicotinamide]
6 | < 0.1 µM | COc1c(OCc2ccc(S(C)(=O)=O)cc2)ccc2c1N=C(NC(=O)c1ccc(N)nc1)N1CCN=C21 [Example 20, 6-amino-N-(7-methoxy-8-{[4-(methylsulfonyl)benzyl]oxy}-2,3-dihydroimidazo[1,2-c]quinazolin-5-yl)nicotinamide]
7 | < 0.1 µM | COc1c(OCCCN2CCS(=O)(=O)CC2)ccc2c1N=C(NC(=O)c1cnc(N)nc1)N1CCN=C21 [Example 21, 2-amino-N-{8-[3-(1,1-dioxidothiomorpholin-4-yl)propoxy]-7-methoxy-2,3-dihydroimidazo[1,2-c]quinazolin-5-yl}pyrimidine-5-carboxamide]
8 | < 0.1 µM | COc1c(OCCCS(=O)(=O)N2CCOCC2)ccc2c1N=C(NC(=O)c1ccc(N)nc1)N1CCN=C21 [Example 22, 6-amino-N-{7-methoxy-8-[3-(morpholin-4-ylsulfonyl)propoxy]-2,3-dihydroimidazo[1,2-c]quinazolin-5-yl}nicotinamide]
9 | < 0.1 µM | COc1c(OCCCS(=O)(=O)N2CCOCC2)ccc2c1N=C(NC(=O)c1cnc(N)nc1)N1CCN=C21 [Example 23, 2-amino-N-{7-methoxy-8-[3-(morpholin-4-ylsulfonyl)propoxy]-2,3-dihydroimidazo[1,2-c]quinazolin-5-yl}pyrimidine-5-carboxamide]
10 | 0.1 to 3 µM | O=C(NC1=Nc2cc(OCCCS(=O)(=O)N3CCOCC3)ccc2C2=NCCN12)c1cccnc1 [Example 24, N-{8-[3-(morpholin-4-ylsulfonyl)propoxy]-2,3-dihydroimidazo[1,2-c]quinazolin-5-yl}nicotinamide]
11 | 0.1 to 3 µM | CN1CCN(S(=O)(=O)CCCOc2ccc3c(c2)N=C(NC(=O)c2cccnc2)N2CCN=C32)CC1 [Example 25, N-(8-{3-[(4-methylpiperazin-1-yl)sulfonyl]propoxy}-2,3-dihydroimidazo[1,2-c]quinazolin-5-yl)nicotinamide]
12 | 0.1 to 3 µM | CS(=O)(=O)c1ccc(COc2ccc3c(c2)N=C(NC(=O)c2cccnc2)N2CCN=C32)cc1 [Example 26, N-(8-{[4-(methylsulfonyl)benzyl]oxy}-2,3-dihydroimidazo[1,2-c]quinazolin-5-yl)nicotinamide]
13 | 0.1 to 3 µM | Cc1nc(C)c(C(=O)NC2=Nc3cc(OCc4ccc(S(C)(=O)=O)cc4)ccc3C3=NCCN23)s1 [Example 27, 2,4-dimethyl-N-(8-{[4-(methylsulfonyl)benzyl]oxy}-2,3-dihydroimidazo[1,2-c]quinazolin-5-yl)-1,3-thiazole-5-carboxamide]
14 | 0.1 to 3 µM | O=C(NC1=Nc2cc(OCCCS(=O)(=O)N3CCOCC3)ccc2C2=NCCN12)c1cncnc1 [Example 28, N-{8-[3-(morpholin-4-ylsulfonyl)propoxy]-2,3-dihydroimidazo[1,2-c]quinazolin-5-yl}pyrimidine-5-carboxamide]
15 | < 0.1 µM | Nc1ncc(C(=O)NC2=Nc3cc(OCCCS(=O)(=O)N4CCOCC4)ccc3C3=NCCN23)cn1 [Example 29, 2-amino-N-{8-[3-(morpholin-4-ylsulfonyl)propoxy]-2,3-dihydroimidazo[1,2-c]quinazolin-5-yl}pyrimidine-5-carboxamide]
16 | 0.1 to 3 µM | Nc1ccc(C(=O)NC2=Nc3cc(OCCCS(=O)(=O)N4CCOCC4)ccc3C3=NCCN23)cn1 [Example 30, 6-amino-N-{8-[3-(morpholin-4-ylsulfonyl)propoxy]-2,3-dihydroimidazo[1,2-c]quinazolin-5-yl}nicotinamide]
17 | < 0.1 µM | COc1c(OCCOCCNS(C)(=O)=O)ccc2c1N=C(NC(=O)c1cccnc1)N1CCN=C21 [Example 31, N-[7-methoxy-8-(2-{2-[(methylsulfonyl)amino]ethoxy}ethoxy)-2,3-dihydroimidazo[1,2-c]quinazolin-5-yl]nicotinamide]
18 | < 0.1 µM | CCCS(=O)(=O)NCCOCCOc1ccc2c(c1OC)N=C(NC(=O)c1cccnc1)N1CCN=C21 [Example 32]
19 | < 0.1 µM | COc1c(OCCOCCNS(=O)(=O)c2ccccc2)ccc2c1N=C(NC(=O)c1cccnc1)N1CCN=C21 [Example 33, N-[7-methoxy-8-(2-{2-[(phenylsulfonyl)amino]ethoxy}ethoxy)-2,3-dihydroimidazo[1,2-c]quinazolin-5-yl]nicotinamide]
20 | < 0.1 µM | COc1c(OCCOCCNS(=O)(=O)c2ccc(C)cc2)ccc2c1N=C(NC(=O)c1cccnc1)N1CCN=C21 [Example 34, N-{7-methoxy-8-[2-(2-{[(4-methylphenyl)sulfonyl]amino}ethoxy)ethoxy]-2,3-dihydroimidazo[1,2-c]quinazolin-5-yl}nicotinamide]
21 | < 0.1 µM | CCS(=O)(=O)NCCCOc1ccc2c(c1OC)N=C(NC(=O)c1cccnc1)N1CCN=C21 [Example 35, N-(8-[3-[(ethylsulfonyl)amino]propoxy]-7-methoxy-2,3-dihydroimidazo[1,2-c]quinazolin-5-yl)nicotinamide]
22 | < 0.1 µM | CS(=O)(=O)c1ccc(COc2c(OCCCN3CCOCC3)ccc3c2N=C(NC(=O)c2cccnc2)N2CCN=C32)cc1 [Example 36, N-[7-{[4-(methylsulfonyl)benzyl]oxy}-8-(3-morpholin-4-ylpropoxy)-2,3-dihydroimidazo[1,2-c]quinazolin-5-yl]nicotinamide]
23 | < 0.1 µM | CS(=O)(=O)Oc1c(OCCCN2CCOCC2)ccc2c1N=C(NC(=O)c1cccnc1)N1CCN=C21 [Example 37, 8-(3-morpholin-4-ylpropoxy)-5-[(pyridin-3-ylcarbonyl)amino]-2,3-dihydroimidazo[1,2-c]quinazolin-7-yl methanesulfonate]
